Read-outs that look alike come from different tables or passages of the source.
Columns and labels:
[1] = tested on: RSV strain A2; test: microbe, parasite or virus in culture; format: cell-based; conditions: read-out: RSV HEp-2 EC50
Protocol: Antiviral activity against RSV is determined using an infectious cytopathic cell protection assay in HEp-2 cells. In this assay, compounds inhibiting viral infection and/or replication produce a cytoprotective effect against the virus-induced cell killing that can be quantified using a cell viability reagent. The techniques used here are novel adaptations of methods described in published literature (Chapman et al., Antimicrob Agents Chemother. 2007, 51(9):3346-53.).
HEp-2 cells are obtained from ATCC (Manassas, VI) and maintained in MEM media supplemented with 10% fetal bovine serum and penicillin/streptomycin. Cells are passaged twice a week and kept at subconfluent stage. Commercial stock of RSV strain A2 (Advanced Biotechnologies, Columbia, MD) is titered before compound testing to determine the appropriate dilution of the virus stock that generates desirable cytopathic effect in HEp-2 cells.
For antiviral tests, HEp-2 cells are grown in large cell culture flasks to near confluency but not fully so. The compounds to be tested are prediluted in DMSO in 384-well compound dilution plates, either in an 8 or 40 sample per plate standardized dose response format. 3-fold serial dilution increments of each test compound are prepared in the plates and test samples are transferred via acoustic transfer apparatus (Echo, Labcyte) at 100 nL per well into cell culture assay 384-well plates. Each compound dilution is transferred in single or quadruplicate samples into dry assay plates, which are stored until assay is ready to go. The positive and negative controls are laid out in opposite on ends of the plate in vertical blocks (1 column).
Subsequently, an infectious mixture is prepared using an appropriate dilution of virus stock previously determined by titration with cells at a density of 50,000/mL and 20 µL/well is added to test plates w/compounds via automation (uFlow, Biotek). Each plate includes negative and positive controls (16 replicates each) to create 0% and 100% virus inhibition standards, respectively. Following the infection with RSV, testing plates are incubated for 4 days in a 37° C. cell culture incubator. After the incubation, a cell viability reagent, Cell TiterGlo (Promega, Madison, WI) is added to the assay plates, which are incubated briefly, and a luminescent readout is measured (Envision, Perkin Elmer) in all the assay plates. The RSV-induced cytopathic effect, percentage inhibition, is determined from the levels of remaining cell viability. […] Various potent anti-RSV tool compounds are used as positive controls for antiviral activity.

[2] = tested on: RSV A2; test: RSV NHBE EC50 (RSV A2 antiviral assay in NHBE cells); format: cell-based; conditions: read-out: RSV NHBE EC50
Protocol: Normal human bronchial epithelial (NHBE) cells were purchased from Lonza (Walkersville, MD, Cat #CC-2540) and cultured in Bronchial Epithelial Growth Media (BEGM) (Lonza, Walkersville, MD, Cat #CC-3170). The cells were passaged 1-2 times per week to maintain <80% confluency. The NHBE cells were discarded after 6 passages in culture.
To conduct the RSV A2 antiviral assay, NHBE cells were plated in 96-well plates at a density of 7,500 cells per well in BEGM and allowed to attach overnight at 37° C. Following attachment, 100 μL of cell culture media was removed and 3-fold serially diluted compound was added using a Hewlett-Packard D300 Digital Dispenser. The final concentration of DMSO was normalized to 0.05%. Following compound addition, the NHBE cells were infected by the addition of 100 μL of RSV A2 at a titer of 1×10^4.5 tissue culture infectious doses/mL in BEGM and then incubated at 37° C. for 4 days. The NHBE cells were then allowed to equilibrate to 25° C. and cell viability was determined by removing 100 μL of culture medium and adding 100 μL of Cell-Titer Glo viability reagent. The mixtures were incubated for 10 minutes at 25° C., and the luminescence signal was quantified on an Envision luminescence plate reader.

[3] = Table 3, HEp-2 cells, RSV A2, 4 days
[4] = Table 3, NHBE cells, RSV A2, 4 days
[5] = human respiratory syncytial virus, HEp-2, 96 h, Table 3, HEp-2 cells, RSV A2, 4 days
[6] = human respiratory syncytial virus, NHBE, 96 h, Table 3, NHBE cells, RSV A2, 4 days

Compound	EC50 [1, 5]	EC50 [2, 6]	further results
CC(C)C(=O)O[C@H]1[C@H](c2ccc3c(N)ncnn23)O[C@](C#N)(COP(=O)(N[C@@H](C)C(=O)O[C@@H]2CCOC2)Oc2ccccc2)[C@H]1OC(=O)C(C)C (single isomer, unassigned) [Example 244]			EC50 [1, 3]: 63 nM; EC50 [2, 4]: 21 nM
CCOCCOCCOC(=O)[C@H](C)NP(=O)(OC[C@@]1(C#N)O[C@@H](c2ccc3c(N)ncnn23)[C@H](OC(=O)C(C)C)[C@@H]1OC(=O)C(C)C)Oc1ccccc1 (single isomer, unassigned) [Example 263]	23 nM		
COC(=O)[C@H](C)NP(=O)(O)OC[C@@]1(C#N)O[C@@H](c2ccc3c(N)ncnn23)[C@H](OC(=O)C(C)C)[C@@H]1OC(=O)C(C)C [Example 242, ((2R,3S,4S,5S)-5-(4-aminopyrrolo[2,1-f][1,2,4]triazin-7-yl)-2-cyano-3,4-bis(isobutyryloxy)tetrahydrofuran-2-yl)methyl ((S)-1-methoxy-1-oxopropan-2-yl)phosphoramidate]	7190 nM	> 5000 nM	
CCOC(=O)[C@H](C)NP(=O)(N[C@@H](C)C(=O)OCC)OC[C@@]1(C#N)O[C@@H](c2ccc3c(NC(=O)C(C)C)ncnn23)[C@H](OC(=O)C(C)C)[C@@H]1OC(=O)C(C)C [Example 145, ((2R,3S,4R,5S)-5-(4-isobutyramidopyrrolo[2,1-f][1,2,4]triazin-7-yl)-2-cyano-3,4-diisobutylatetetrahydrofuran-2-yl)methyl bis-ethyl L-alaninate phosphate]		40 nM	
CCOC(=O)[C@H](C)NP(=O)(OC[C@@]1(C#N)O[C@@H](c2ccc3c(N)ncnn23)[C@H](OC(=O)C(C)C)[C@@H]1OC(=O)C(C)C)Oc1ccccc1 (mixture of isomers) [Example 248, (2R,3S,4S,5S)-5-(4-aminopyrrolo[2,1-f][1,2,4]triazin-7-yl)-2-cyano-2-((((((S)-1-ethoxy-1-oxopropan-2-yl)amino)(phenoxy)phosphoryl)oxy)methyl)tetrahydrofuran-3,4-diyl bis(2-methylpropanoate)]	23 nM		
CCCCOC(=O)C(C)NP(=O)(OCC1(C#N)OC(c2ccc3c(N)ncnn23)C(OC(=O)C(C)C)C1OC(=O)C(C)C)Oc1ccccc1 (single isomer, unassigned) [Example 226]			EC50 [1, 3]: 9 nM; EC50 [2, 4]: 9 nM
COC(=O)[C@H](C)NP(=O)(OC[C@@]1(C#N)O[C@@H](c2ccc3c(N)ncnn23)[C@H](OC(=O)C(C)C)[C@@H]1OC(=O)C(C)C)Oc1ccc(C[C@H](N)C(=O)OC(C)C)cc1 (stereo partly drawn) [Example 251, (2R,3S,4S,5S)-2-((((4-((S)-2-amino-3-isopropoxy-3-oxopropyl)phenoxy)(((S)-1-methoxy-1-oxopropan-2-yl)amino)phosphoryl)oxy)methyl)-5-(4-aminopyrrolo[2,1-f][1,2,4]triazin-7-yl)-2-cyanotetrahydrofuran-3,4-diyl bis(2-methylpropanoate)]	186 nM	37 nM	
CCC(=O)OC1[C@H](c2ccc3c(N)ncnn23)O[C@](C#N)(COP(=O)(N[C@@H](C)C(=O)OCC2CC2)Oc2ccccc2)[C@H]1OC(=O)CC (stereo in doubt) [Example 98, (2R,3S,4R,5S)-5-(4-aminopyrrolo[2,1-f][1,2,4]triazin-7-yl)-2-cyano-2-((((((S)-1-(cyclopropylmethoxy)-1-oxopropan-2-yl)amino)(phenoxy)phosphoryl)oxy)methyl) tetrahydrofuran-3,4-diyl dipropionate]	48 nM	17 nM	
CCCCOC(=O)C(C)NP(=O)(OCC1(C#N)OC(c2ccc3c(N)ncnn23)C(OC(=O)C(C)C)C1OC(=O)C(C)C)Oc1ccccc1 (single isomer, unassigned) [Example 227]			EC50 [1, 3]: 17 nM; EC50 [2, 4]: 12 nM
CC(C)C(=O)O[C@H]1[C@H](c2ccc3c(N)ncnn23)O[C@](C#N)(COP(=O)(N[C@@H](C)C(=O)O[C@@H]2CCOC2)Oc2ccccc2)[C@H]1OC(=O)C(C)C (single isomer, unassigned) [Example 243]		11 nM	EC50 [1, 3]: 15 nM
CC(=O)O[C@H]1[C@H](c2ccc3c(N)ncnn23)O[C@](C#N)(CO[P@@](=O)(N[C@@H](C)C(=O)OC2CCCCC2)Oc2ccccc2)[C@H]1OC(C)=O [Example 81, (2R,3S,4S,5S)-5-(4-aminopyrrolo[2,1-f][1,2,4]triazin-7-yl)-2-cyano-2-((((S)-(((S)-1-(cyclohexyloxy)-1-oxopropan-2-yl)amino)(phenoxy)phosphoryl)oxy)methyl) tetrahydrofuran-3,4-diyl diacetate]	194 nM	22 nM	
CCOC(=O)[C@H](C)N[P@@](=O)(OC[C@@]1(C#N)O[C@@H](c2ccc3c(N)ncnn23)[C@H](OC(=O)C(C)C)[C@@H]1OC(=O)C(C)C)Oc1ccccc1 (single isomer, unassigned) [Example 249]	47 nM	24 nM	
COC(=O)[C@H](C)NP(=S)(OC[C@@]1(C#N)O[C@@H](c2ccc3c(N)ncnn23)[C@H](OC(=O)C(C)C)[C@@H]1OC(=O)C(C)C)Oc1ccccc1 (stereo partly drawn) [Example 250, (2R,3S,4S,5S)-5-(4-aminopyrrolo[2,1-f][1,2,4]triazin-7-yl)-2-cyano-2-((((((S)-1-methoxy-1-oxopropan-2-yl)amino)(phenoxy)phosphorothioyl)oxy)methyl) tetrahydrofuran-3,4-diyl bis(2-methylpropanoate)]			EC50 ([1]; human respiratory syncytial virus, HEp-2, 96 h): 3930 nM; EC50 ([2]; human respiratory syncytial virus, NHBE, 96 h): 2420 nM
CC(C)C(=O)OC1C(c2ccc3c(N)ncnn23)OC(C#N)(COP(=O)(NC(C)C(=O)OC2CCN(C)C2)Oc2ccccc2)C1OC(=O)C(C)C (single isomer, unassigned) [Example 233]			EC50 [1, 3]: 127 nM; EC50 [2, 4]: 29 nM
CCCCOC(=O)[C@H](C)NP(=O)(OC[C@@]1(C#N)O[C@@H](c2ccc3c(N)ncnn23)[C@H](OC(=O)C(C)C)[C@@H]1OC(=O)C(C)C)Oc1ccccc1 (mixture of isomers) [Example 225, (2R,3S,4S,5S)-5-(4-aminopyrrolo[2,1-f][1,2,4]triazin-7-yl)-2-((((((S)-1-butoxy-1-oxopropan-2-yl)amino)(phenoxy)phosphoryl)oxy)methyl)-2-cyanotetrahydrofuran-3,4-diyl bis(2-methylpropanoate)]		14 nM	
CC(C)C(=O)O[C@H]1[C@H](c2ccc3c(N)ncnn23)O[C@](C#N)(COP(=O)(N[C@@H](C)C(=O)OCC(C)(C)O)Oc2ccccc2)[C@H]1OC(=O)C(C)C (stereo partly drawn) [Example 256, (2R,3S,4S,5S)-5-(4-aminopyrrolo[2,1-f][1,2,4]triazin-7-yl)-2-cyano-2-((((((S)-1-(2-hydroxy-2-methylpropoxy)-1-oxopropan-2-yl)amino)(phenoxy)phosphoryl)oxy)methyl)tetrahydrofuran-3,4-diyl bis(2-methylpropanoate)]		20 nM	
CC(C)C(=O)O[C@H]1[C@H](c2ccc3c(N)ncnn23)O[C@](C#N)(COP(=O)(N[C@@H](C)C(=O)OCC(C)(C)OP(=O)(O)O)Oc2ccccc2)[C@H]1OC(=O)C(C)C (stereo partly drawn) [Example 262, (2R,3S,4S,5S)-5-(4-aminopyrrolo[2,1-f][1,2,4]triazin-7-yl)-2-cyano-2-((((((S)-1-(2-methyl-2-(phosphonooxy)propoxy)-1-oxopropan-2-yl)amino)(phenoxy)phosphoryl)oxy)methyl)tetrahydrofuran-3,4-diyl bis(2-methylpropanoate)]	163 nM		
